Experiment: cn = amount concentration of the nth substance listed, in mol/dm3
Conditions: 101 kPa, Liquid, Dip Cell

CCCCCCCCCCCCCCCC[N+](C)(C)CCCCCC[N+](C)(C)CCCCCCCCCCCCCCCC.[Br-].[Br-] + O
electrical conductivity [S/m]
Conditions | 298 K | 303 K | 308 K | 313 K
c1 = 3.3e-06 | 7.1e-08 | 7.2e-08 | 7.3e-08 | 7.5e-08
c1 = 6.6e-06 | 1.31e-07 | 1.53e-07 | 1.22e-07 | 1.33e-07
c1 = 9.9e-06 | 2.04e-07 | 2.14e-07 | 2.09e-07 | 1.92e-07
c1 = 1.32e-05 | 2.59e-07 | 2.69e-07 | 2.84e-07 | 2.42e-07
c1 = 1.64e-05 | 3.27e-07 | 3.46e-07 | 3.66e-07 | 3.21e-07
c1 = 1.96e-05 | 3.99e-07 | 4.09e-07 | 4.21e-07 | 3.95e-07
c1 = 2.28e-05 | 4.86e-07 | 5.06e-07 | 5.18e-07 | 4.69e-07
c1 = 2.6e-05 | 5.26e-07 | 5.46e-07 | 5.67e-07 | 5.41e-07
c1 = 2.91e-05 | 6.16e-07 | 6.36e-07 | 6.57e-07 | 6.23e-07
c1 = 3.23e-05 | 6.92e-07 | 7.02e-07 | 7.22e-07 | 6.81e-07
c1 = 3.54e-05 | 7.86e-07 | 8.06e-07 | 8.22e-07 | 7.7e-07
c1 = 3.85e-05 | 8.34e-07 | 8.54e-07 | 8.91e-07 | 8.38e-07
c1 = 4.15e-05 | 9.29e-07 | 9.49e-07 | 9.65e-07 | 9.01e-07
c1 = 4.46e-05 | 9.65e-07 | 9.95e-07 | 1.042e-06 | 9.69e-07
c1 = 4.76e-05 | 1.031e-06 | 1.031e-06 | 1.071e-06 | 1.041e-06
c1 = 5.06e-05 | 1.084e-06 | 1.084e-06 | 1.113e-06 | 1.113e-06
c1 = 5.36e-05 | 1.145e-06 | 1.145e-06 | 1.17e-06 | 1.18e-06
c1 = 5.66e-05 | 1.186e-06 | 1.206e-06 | 1.226e-06 | 1.246e-06
c1 = 5.96e-05 | 1.209e-06 | 1.249e-06 | 1.269e-06 | 1.299e-06
c1 = 6.25e-05 | 1.272e-06 | 1.292e-06 | 1.312e-06 | 1.352e-06
c1 = 6.54e-05 | 1.326e-06 | 1.356e-06 | 1.376e-06 | 1.396e-06
c1 = 6.83e-05 | 1.359e-06 | 1.379e-06 | 1.399e-06 | 1.447e-06
c1 = 7.12e-05 | 1.396e-06 | 1.416e-06 | 1.456e-06 | 1.486e-06
c1 = 7.41e-05 | 1.437e-06 | 1.457e-06 | 1.477e-06 | 1.541e-06
c1 = 7.69e-05 | 1.462e-06 | 1.482e-06 | 1.512e-06 | 1.59e-06

CCCCCCCCCCCCCCCC[N+](C)(C)CCCCC[N+](C)(C)CCCCCCCCCCCCCCCC.[Br-].[Br-] + O
electrical conductivity [S/m]
Conditions | 298 K | 303 K | 308 K | 313 K
c1 = 3.3e-06 | 6.8e-05 | 6.9e-05 | 7e-05 | 7.1e-05
c1 = 6.6e-06 | 0.000129 | 0.000135 | 0.000148 | 0.00015
c1 = 9.9e-06 | 0.00021 | 0.000219 | 0.00023 | 0.000236
c1 = 1.32e-05 | 0.000279 | 0.00029 | 0.000292 | 0.000308
c1 = 1.64e-05 | 0.000358 | 0.000376 | 0.000385 | 0.000396
c1 = 1.96e-05 | 0.000418 | 0.000432 | 0.000442 | 0.000456
c1 = 2.28e-05 | 0.000495 | 0.000505 | 0.000514 | 0.000519
c1 = 2.6e-05 | 0.000557 | 0.000564 | 0.000579 | 0.000584
c1 = 2.91e-05 | 0.000634 | 0.000646 | 0.000659 | 0.000684
c1 = 3.23e-05 | 0.000684 | 0.000699 | 0.000715 | 0.000732
c1 = 3.54e-05 | 0.000746 | 0.000766 | 0.000779 | 0.000789
c1 = 3.85e-05 | 0.000803 | 0.000816 | 0.000826 | 0.00087
c1 = 4.15e-05 | 0.000873 | 0.000873 | 0.000896 | 0.000945
c1 = 4.46e-05 | 0.000935 | 0.000935 | 0.000956 | 0.000998
c1 = 4.76e-05 | 0.001 | 0.001 | 0.00101 | 0.00108
c1 = 5.06e-05 | 0.00103 | 0.00105 | 0.00106 | 0.00112
c1 = 5.36e-05 | 0.00109 | 0.00113 | 0.00113 | 0.00115
c1 = 5.66e-05 | 0.00113 | 0.00116 | 0.00116 | 0.00121
c1 = 5.96e-05 | 0.00119 | 0.00122 | 0.00123 | 0.00125
c1 = 6.25e-05 | 0.00123 | 0.00127 | 0.00129 | 0.00129
c1 = 6.54e-05 | 0.00128 | 0.00132 | 0.00135 | 0.00135
c1 = 6.83e-05 | 0.00133 | 0.00137 | 0.00138 | 0.0014
c1 = 7.12e-05 | 0.00137 | 0.00142 | 0.00145 | 0.00144
c1 = 7.41e-05 | 0.00142 | 0.00146 | 0.00147 | 0.00148
c1 = 7.69e-05 | 0.00144 | 0.00149 | 0.0015 | 0.00152

Cc1ccc(S(=O)(=O)[O-])cc1.[Na+] [sodium p-toluenesulfonate] + O
electrical conductivity [S/m]
Conditions | 298 K | 303 K | 308 K | 313 K
c1 = 1.98e-05 | 1.97e-05 | 1.898e-05 | 2.03e-05 | 2.26e-05
c1 = 3.92e-05 | 3.417e-05 | 3.49e-05 | 3.87e-05 | 4.25e-05
c1 = 5.83e-05 | 4.83e-05 | 5.03e-05 | 5.5e-05 | 6.1e-05
c1 = 7.69e-05 | 6.1e-05 | 6.43e-05 | 7.18e-05 | 7.97e-05
c1 = 9.52e-05 | 7.34e-05 | 7.77e-05 | 8.74e-05 | 9.66e-05
c1 = 0.0001132 | 8.47e-05 | 9.1e-05 | 0.000101 | 0.000113
c1 = 0.0001308 | 9.61e-05 | 0.000104 | 0.000115 | 0.000128
c1 = 0.0001481 | 0.000107 | 0.000117 | 0.000127 | 0.000142
c1 = 0.0001651 | 0.000117 | 0.000129 | 0.00014 | 0.000156
c1 = 0.0001818 | 0.000127 | 0.000139 | 0.000152 | 0.000169
c1 = 0.0001982 | 0.000137 | 0.000149 | 0.000164 | 0.000181
c1 = 0.0002143 | 0.000147 | 0.000161 | 0.000175 | 0.000194
c1 = 0.0002456 | 0.000164 | 0.000179 | 0.000196 | 0.000203
c1 = 0.0002609 | 0.00017 | 0.000188 | 0.000192 | 0.000214
c1 = 0.0002759 | 0.00018 | 0.000196 | 0.000201 | 0.000224
c1 = 0.0002906 | 0.0001884 | 0.000192 | 0.000209 | 0.000234
c1 = 0.0003051 | 0.0001964 | 0.0002 | 0.000219 | 0.000242
c1 = 0.0003193 | 0.000203 | 0.000208 | 0.000228 | 0.000253
c1 = 0.0003333 | 0.000196 | 0.000215 | 0.000236 | 0.00026
c1 = 0.0003471 | 0.000201 | 0.000222 | 0.000243 | 0.000269
c1 = 0.0003673 | 0.000206 | 0.000232 | 0.000254 | 0.000281
c1 = 0.0003871 | 0.000219 | 0.000241 | 0.000267 | 0.000293
c1 = 0.0004064 | 0.000228 | 0.000251 | 0.000276 | 0.000305
c1 = 0.0004252 | 0.000236 | 0.000259 | 0.000286 | 0.000315
c1 = 0.0004436 | 0.000242 | 0.000267 | 0.000295 | 0.000326
c1 = 0.0004615 | 0.000249 | 0.000274 | 0.000304 | 0.000336
c1 = 0.0004791 | 0.000258 | 0.000283 | 0.000313 | 0.000342
c1 = 0.0004962 | 0.000265 | 0.000293 | 0.000321 | 0.00035
c1 = 0.000513 | 0.000271 | 0.0003 | 0.00033 | 0.000359

From the NIST ThermoML archive (doi:10.1021/je100256w)
